Data reported in patent US6908919B2, “Substituted polycyclic aryl and heteroaryl pyrazinones useful for selective inhibition of the coagulation cascade” (Pharmacia Corporation, priority 1999, dated 2005).
Where two headings read alike, the source gives them in different places.

What was measured:
[1] = target: Human factor Xa (Homo sapiens, UniProt P00742); assay: Xa Assay; format: biochemical; design: purchased Enzyme Research Laboratories, South Bend Ind; details: for % Inhibition Factor Xa (30 µM): at 30 µM inhibitor
Chain of Human factor Xa (P00742 41-179 limits assumed): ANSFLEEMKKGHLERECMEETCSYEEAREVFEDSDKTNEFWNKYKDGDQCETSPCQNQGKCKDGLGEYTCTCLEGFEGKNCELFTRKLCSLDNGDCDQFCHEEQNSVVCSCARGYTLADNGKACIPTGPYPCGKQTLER
Chain of Human factor Xa (P00742 235-488 limits assumed): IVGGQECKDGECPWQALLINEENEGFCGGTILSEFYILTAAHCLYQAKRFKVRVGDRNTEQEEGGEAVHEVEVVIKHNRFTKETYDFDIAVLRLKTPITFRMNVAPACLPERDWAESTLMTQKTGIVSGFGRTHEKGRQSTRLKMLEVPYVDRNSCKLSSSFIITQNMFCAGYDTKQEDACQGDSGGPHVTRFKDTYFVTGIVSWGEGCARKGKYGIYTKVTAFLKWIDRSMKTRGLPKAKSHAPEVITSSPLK

[2] = target: T1, recombinant soluble tissue factor and recombinant human factor VIIa (TF-VIIa) (Homo sapiens, UniProt P08709); assay: TF-VIIa Assay; format: biochemical; details: for IC50: read-out: IC50 TF-VIIa; for % Inhibition TF-VIIa (30 µM): at 30 µM inhibitor
T1 construct: conversion of coagulation factor VII to VIIa by Xa; purchased American Diagnostica, Greenwich Conn; host or cells: VIIa purchased; soluble TF made in house in E. coli
T1 sequence (P08709 61-212 limits assumed): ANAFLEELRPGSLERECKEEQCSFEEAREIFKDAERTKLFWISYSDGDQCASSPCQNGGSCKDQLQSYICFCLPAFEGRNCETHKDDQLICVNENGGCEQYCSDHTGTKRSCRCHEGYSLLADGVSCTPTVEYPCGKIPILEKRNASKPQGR
T1 sequence (P08709 213-466 limits assumed): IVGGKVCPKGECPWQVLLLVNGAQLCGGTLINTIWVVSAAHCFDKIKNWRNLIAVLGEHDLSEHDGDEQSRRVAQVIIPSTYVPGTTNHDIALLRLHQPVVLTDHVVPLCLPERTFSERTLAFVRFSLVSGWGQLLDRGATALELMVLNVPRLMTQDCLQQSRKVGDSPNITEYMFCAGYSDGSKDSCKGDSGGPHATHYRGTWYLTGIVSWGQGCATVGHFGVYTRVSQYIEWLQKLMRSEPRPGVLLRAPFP
T1 sequence (P13726 33-251 partner limits assumed): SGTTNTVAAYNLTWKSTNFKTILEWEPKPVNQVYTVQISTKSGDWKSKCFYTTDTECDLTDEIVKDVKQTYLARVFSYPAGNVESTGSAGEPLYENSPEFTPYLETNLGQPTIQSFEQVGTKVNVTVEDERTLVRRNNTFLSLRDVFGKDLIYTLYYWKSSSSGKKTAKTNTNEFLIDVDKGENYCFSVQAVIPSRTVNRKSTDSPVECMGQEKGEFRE

| % Inhibition Factor Xa (100 µM) ([1]; inhibitor at 100 µM) [%] | % Inhibition TF-VIIa (100 µM) ([2]; inhibitor at 100 µM) [%] | SMILES | other results |
| --- | --- | --- | --- |
| 2 | 0 | O=C(Cn1c(-c2cccc(Cl)c2)c(Cl)nc(NCc2ccccc2)c1=O)NCCc1ccncc1 [Example E-0073] |  |
| 0 | 0 | O=C(Cn1c(-c2ccc(Cl)cc2)c(Cl)nc(NCCN2CCOCC2)c1=O)NCCc1ccncc1 [Example E-0023] |  |
|  |  | CC(C)Nc1nc(Cl)c(-c2cc(N)cc(C(=O)NCc3ccc(C(C)(C)C)cc3)c2)n(CC(=O)NCc2ccc(C(=N)N)cc2)c1=O [Example 128-7] | inhibition at 100 µM ([1]; at 100 μM inhibitor): 40%; IC50 [2]: 0.242 µM |
| 3 | 0 | O=C(Cn1c(-c2cccc(Cl)c2)c(Cl)nc(NCCc2ccccc2)c1=O)NCCc1cccnc1 [Example E-0077] |  |
|  |  | Cc1cccc(Cl)c1CNc1nc(Cl)c(-c2ccccc2)n(CC(=O)NCc2ccc(C(=N)N)cc2)c1=O [1512-31] | % Inhibition Factor Xa (30 µM) [1]: 14%; % Inhibition TF-VIIa (30 µM) [2]: 43% |
| 6 | 0 | O=C(Cn1c(Cc2ccccc2)c(Cl)nc(NCc2ccccc2)c1=O)NCCc1ccncc1 [Example E-0057] |  |
| 4 | 1 | O=C(Cn1c(-c2cccc(Cl)c2)c(Cl)nc(NCCc2cccc(Cl)c2)c1=O)NCCc1ccncc1 [Example E-0091] |  |
| 0 | 0 | O=C(Cn1c(Cc2ccccc2)c(Cl)nc(NCCc2ccncc2)c1=O)NCCc1ccncc1 [Example E-0062] |  |
|  |  | C[C@H](Nc1nc(Cl)c(-c2cccc(N)c2)n(CC(=O)NCc2ccc(C(=N)N)cc2)c1=O)C(=O)O [Example 135] | % Inhibition Factor Xa at 100 μM ([1]; at 100 μM inhibitor): 6% at 100 μM; IC50 [2]: 6.4 µM |
| 0 | 0 | O=C(Cn1c(Cc2ccccc2)c(Cl)nc(NCCc2ccccc2)c1=O)NCCc1ccncc1 [Example E-0058] |  |
| 0 | 0 | O=C(Cn1c(-c2ccc(Cl)cc2)c(Cl)nc(NCCc2ccccc2)c1=O)NCCc1ccncc1 [Example E-0026] |  |
| 0 | 0 | O=C(Cn1c(-c2ccc3c(c2)OCO3)c(Cl)nc(NCc2ccncc2)c1=O)NCCc1ccncc1 [Example E-0048] |  |
|  |  | Nc1cccc(-c2c(Cl)nc(NC3CCC3)c(=O)n2CC(=O)NCc2ccccc2)c1 [Example 99] | % Inhibition Factor Xa (30 µM) [1]: 8% @ 30; % Inhibition TF-VIIa (30 µM) [2]: 6% @ 30 |
|  |  | O=C(Cn1c(-c2ccc(-c3ccccc3)cc2)c(Cl)nc(NCCc2ccc(Cl)cc2)c1=O)NCCc1ccncc1 [Example E-0052] | % Inhibition Factor Xa (100 µM) [1]: 0%; % Inhibition TF-VIIa (100 µM) [2]: 0% |
| 0 | 0 | O=C(Cn1c(CCc2ccccc2)c(Cl)nc(NCc2ccncc2)c1=O)NCCc1ccncc1 [Example E-0072] |  |
| 0 | 0 | O=C(Cn1c(-c2ccc(Cl)cc2)c(Cl)nc(NCc2ccccc2)c1=O)NCCc1ccncc1 [Example E-0025] |  |
| 0 | 2 | Cc1c(Cl)nc(NCCc2ccncc2)c(=O)n1CC(=O)NCCc1ccncc1 [Example E-0006] |  |
| 6 | 4 | COc1ccc(-c2c(Cl)nc(NCCc3ccc(Cl)cc3)c(=O)n2CC(=O)NCCc2cccnc2)cc1 [Example E-0107] |  |
| 0 | 0 | O=C(Cn1c(Cc2ccccc2)c(Cl)nc(NCCc2ccc(Cl)cc2)c1=O)NCCc1ccncc1 [Example E-0060] |  |

| % Inhibition Factor Xa (100 µM) ([1]; inhibitor at 100 µM) [%] | % Inhibition TF-VIIa (100 µM) ([2]; inhibitor at 100 µM) [%] | SMILES | other results |
| --- | --- | --- | --- |
|  |  | N=C(N)NCC#CCNC(=O)Cn1c(-c2ccccc2)cnc(NCCc2ccccc2)c1=O [Example 36] | % Inhibition Factor Xa (30 µM) [1]: 0%; % Inhibition TF-VIIa (30 µM) [2]: 5% |
| 0 | 0 | O=C(Cn1c(-c2ccc3c(c2)OCO3)c(Cl)nc(NCCc2ccc(Cl)cc2)c1=O)NCCc1ccncc1 [Example E-0044] |  |
| 0 | 0 | COc1ccc(-c2c(Cl)nc(NCc3ccncc3)c(=O)n2CC(=O)NCCc2ccncc2)cc1 [Example E-0040] |  |
| 1 | 0 | COc1ccc(-c2c(Cl)nc(NCCN3CCOCC3)c(=O)n2CC(=O)NCCc2ccncc2)cc1 [Example E-0039] |  |
|  |  | COc1ccc(-c2c(Cl)nc(NCCc3cccnc3)c(=O)n2CC(=O)NCc2ccc(C(=N)N)cc2)cc1 [1471-40] | % Inhibition Factor Xa (30 µM) [1]: 11%; % Inhibition TF-VIIa (30 µM) [2]: 40% |
|  |  | N=C(N)c1ccc(CNC(=O)Cn2c(-c3ccc(-c4ccccc4)cc3)c(Cl)nc(NCCc3cccnc3)c2=O)cc1 [1471-72] | % Inhibition Factor Xa (30 µM) [1]: 22%; % Inhibition TF-VIIa (30 µM) [2]: 15% |
|  |  | N=C(N)c1ccc(CNC(=O)Cn2c(-c3ccccc3)c(Cl)nc(NCc3cc(F)cc(C(F)(F)F)c3)c2=O)cc1 [1512-29] | % Inhibition Factor Xa (30 µM) [1]: 4%; % Inhibition TF-VIIa (30 µM) [2]: 47% |
|  |  | COc1ccc(-c2c(Cl)nc(NCCN3CCOCC3)c(=O)n2CC(=O)NCc2ccc(C(=N)N)cc2)cc1 [1471-36] | % Inhibition Factor Xa (30 µM) [1]: 6%; % Inhibition TF-VIIa (30 µM) [2]: 11% |
|  |  | N=C(N)c1ccc(CNC(=O)C(Cc2ccccc2)n2c(-c3ccccc3)c(Cl)nc(NC3CCC3)c2=O)cc1 (stereo not shown) [Example 1517-08] | % Inhibition Factor Xa (30 µM) [1]: 0%; % Inhibition TF-VIIa (30 µM) [2]: 43% |
| 0 | 0 | COc1ccc(-c2c(Cl)nc(NCCc3ccc(Cl)cc3)c(=O)n2CC(=O)NCCc2ccncc2)cc1 [Example E-0036] |  |
| 4 | 1 | O=C(Cn1c(-c2cccc(Cl)c2)c(Cl)nc(NCCc2cccc(Cl)c2)c1=O)NCCc1cccnc1 [Example E-0080] |  |
| 4 | 0 | O=C(Cn1c(-c2cccc(Cl)c2)c(Cl)nc(NCc2ccccc2)c1=O)NCCc1cccnc1 [Example E-0086] |  |
| 1 | 0 | O=C(Cn1c(-c2ccccc2)c(Cl)nc(NCc2ccccc2)c1=O)NCCc1ccncc1 [Example E-0009] |  |
| 0 | 0 | O=C(Cn1c(-c2ccc3c(c2)OCO3)c(Cl)nc(NCCc2cccc(Cl)c2)c1=O)NCCc1ccncc1 [Example E-0043] |  |
|  |  | O=C(Cn1c(-c2ccc(-c3ccccc3)cc2)c(Cl)nc(NCCc2ccc(Cl)cc2)c1=O)NCCc1ccncc1 [Example E-0118] | % Inhibition Factor Xa (100 µM) [1]: 3%; % Inhibition TF-VIIa (100 µM) [2]: 12% |
| 0 | 0 | O=C(Cn1c(CCc2ccccc2)c(Cl)nc(NCCN2CCOCC2)c1=O)NCCc1ccncc1 [Example E-0071] |  |
|  |  | N=C(N)c1ccc(CNC(=O)Cn2c(-c3ccc4c(c3)OCO4)c(Cl)nc(NCCN3CCOCC3)c2=O)cc1 [1471-44] | % Inhibition Factor Xa (30 µM) [1]: 13%; % Inhibition TF-VIIa (30 µM) [2]: 34% |
| 0 | 0 | O=C(Cn1c(Cc2ccccc2)c(Cl)nc(NCCN2CCOCC2)c1=O)NCCc1ccncc1 [Example E-0063] |  |
|  |  | O=C(Cn1c(-c2ccc(-c3ccccc3)cc2)c(Cl)nc(NCc2ccncc2)c1=O)NCCc1ccncc1 [Example E-0056] | % Inhibition Factor Xa (100 µM) [1]: 0%; % Inhibition TF-VIIa (100 µM) [2]: 0% |
